Measured values reported in patent US5939421A, “Quinazoline analogs and related compounds and methods for treating inflammatory conditions” (Signal Pharmaceuticals, Inc., priority 1997, dated 1999).

Experiments:
IL-8 = test: Inhibition of PMA/PHA-induced IL-8 production (ELISA, supernatants of NFκB reporter assay); type: cell-based; conditions: Homo sapiens
Procedure: (§1) Stable human Jurkat T-cells containing an NFκB binding site (from the MHC promoter) fused to a minimal SV-40 promoter driving luciferase expression were used in this experiment. Cells were split to 3×10^5 cells/mL every 2-3 days (cell concentration should not exceed 1×10^6 cells/mL to keep the cells proliferating in log phase). These cells were counted, resuspended in fresh medium containing 10% Serum-Plus at a density of 1×10^6 cells/mL and plated in 96 well round bottom plates (200 μL per well) 18 hours prior to starting the experiment.
(§2) Compounds of this invention, dissolved in dimethyl sulfoxide (3.3, 0.33 and 0.03 μg/mL), were then added to the 96 well plates containing the cells and the plates are incubated for 0.5 h at 37° C. Then 50 ng/mL of phorbol 12-myristate-13-acetate (PMA) and 1 μg/mL of phytohemagglutinin (PHA) was added to each well and the cells were incubated for an additional 5 h at 37° C. The plates were centrifuged at 2200 RPM for 3 minutes at room temperature and then the medium was removed. To each well was added 60 μL of cell lysis buffer and the plates were left at room temperature for 0.25 h. Then 40 μL of each cell extract was transferred to a black 96 well plate and 50 μL of luciferase substrate buffer was added. Luminescence was immediately measured using a Packard TopCount.
(§3) Cytokine levels in the supernatants (25-50 μL aliquots) were determined by ELISA.

NFκB = NFκB assay: luciferase reporter in stable Jurkat T-cells, PMA/PHA stimulated; type: cell-based; conditions: Homo sapiens, PMA 50 ng/mL + PHA 1 μg/mL, 5 h, read-out: NFkB IC50
Procedure: as §1, §2

AP-1 = AP-1 assay: -73 collagenase promoter luciferase reporter in stable Jurkat T-cells, PMA/PHA stimulated; type: cell-based; conditions: Homo sapiens, PMA 5 ng/mL + PHA 1 μg/mL, 5 h
Procedure: as §1, §2
(§4) For AP-1, the assay was run as described above for NFκB except stable Jurkat T-cells were used that contained a the -73 collagenase promoter driving luciferase expression. In addition, the concentration of PMA used was 5 ng/mL.
The results of the above assays (expressed as IC50 's, μM) for representative compounds of this invention, as percent inhibition versus control, are presented in Table 3. β-actin was employed as a control […] indicating effects on transcription. The lack of β-actin activity evidences selectivity of the test compounds for the transcription factors AP-1 and NFκB.

IL-2 = test: Inhibition of PMA/PHA-induced IL-2 production (ELISA, supernatants of AP-1 reporter assay); type: cell-based; conditions: Homo sapiens
Procedure: as §1, §2, §4, §3

mice [1] = conditions: Morris et al., Transplantation Proceedings 1990; cited from earlier work
mice [2] = conditions: Morris et al., Transplantation Proceedings 1990; cited from earlier work; remark: listed apart in the source

Compound: CC1=CC(=O)N(Nc2nc(-c3ccccc3)nc3ccccc23)C1=O [Compound 1, 4-(N-AMINOCITRACONAMIDO)-2-PHENYLQUINAZOLINE]
- IC50 (IL-8): 2 nM
- IC50 (NFκB): 100 nM
- IC50 (AP-1): 200 nM
- IC50 (IL-2): 10 nM

Compound: CC1=CC(=O)N(Nc2nc(-c3cccs3)nc3cnccc23)C1=O [Compound 2, 4-(N-AMINOCITRACONAMIDO)-2-(2'-THIENYL)PYRIDOPYRIMIDINE]
- IC50 (IL-8): 100 nM
- IC50 (NFκB): 100 nM
- IC50 (AP-1): 100 nM
- IC50 (IL-2): 700 nM

Compound: CC1=CC(=O)N(Nc2nc(C(F)(F)F)nc3ccccc23)C1=O [Compound 3, 4-(N-AMINOCITRACONAMIDO)-2-TRIFLUOROMETHYLQUINAZOLINE]
- IC50 (IL-8): 30 nM
- IC50 (NFκB): 10 nM
- IC50 (AP-1): 100 nM
- IC50 (IL-2): 50 nM

Compound: COc1cccc2nc(C(F)(F)F)nc(NN3C(=O)C=C(C)C3=O)c12 [Compound 4, 4-(N-AMINOCITRACONAMIDO)-5-METHOXY-2-TRIFLUOROMETHYLQUNINAZOLINE]
- IC50 (IL-8): 50 nM
- IC50 (NFκB): 10 nM
- IC50 (AP-1): 10 nM
- IC50 (IL-2): 120 nM

Compound: CC1=CC(=O)N(Nc2nc(C(F)(F)F)nc3cccc(C)c23)C1=O [Compound 5, 4-(N-AMINOCITRACONAMIDO)-5-METHYL-2-TRIFLUOROMETHYLQUINAZOLINE]
- IC50 (IL-8): 2 nM
- IC50 (NFκB): 200 nM
- IC50 (AP-1): 500 nM
- IC50 (IL-2): 20 nM

Compound: CC1=CC(=O)N(Nc2nc(C(F)(F)F)nc3cc(Cl)ccc23)C1=O [Compound 6, 4-(N-AMINOCITRACONAMIDO)-7-CHLORO-2-TRIFLUOROMETHYLQUINAZOLINE]
- IC50 (IL-8): 50 nM
- IC50 (NFκB): 100 nM
- IC50 (AP-1): 300 nM
- IC50 (IL-2): 500 nM

Compound: CC1=CC(=O)N(Nc2nc(C(F)(F)F)nc3cc(N4CCCCC4)ccc23)C1=O [Compound 7, 4-(N-AMINOCITRACONAMIDO)-7-(N-PIPERIDYL)-2-TRIFLUOROMETHYLQUNINAZOLINE]
- IC50 (IL-8): 5 nM
- IC50 (NFκB): 100 nM
- IC50 (IL-2): 70 nM

Compound: CSc1ccc2nc(C(F)(F)F)nc(NN3C(=O)C=C(C)C3=O)c2c1 [Compound 8, 4-(N-AMINOCITRACONAMIDO)-6-METHYLTHIO-2-TRIFLUOROMETHYLQUNINAZOLINE]
- IC50 (IL-8): 50 nM
- IC50 (NFκB): 60 nM
- IC50 (AP-1): 90 nM
- IC50 (IL-2): 40 nM

Compound: CC1=CC(=O)N(Nc2nc(C(F)(F)F)nc3ccc(S(C)(=O)=O)cc23)C1=O [Compound 10, 4-(N-AMINOCITRACONAMIDO)-6-METHYLSULFONYL-2-TRIFLUOROMETHYLQUNINAZOLINE]
- IC50 (NFκB): 8000 nM
- IC50 (AP-1): 10000 nM

Compound: CC1=CC(=O)N(Nc2nc(-c3cccs3)nc3ccccc23)C1=O [Compound 11, 4-(N-AMINOCITRACONAMIDO)-2-(2'-THIENYL)QUNINAZOLINE]
- IC50 (NFκB): 40 nM
- IC50 (AP-1): 70 nM

Compound: CC1=CC(=O)N(N(C)c2nc(-c3cccs3)nc3ccccc23)C1=O [Compound 12, 4-(N-METHYL-N-AMINOCITRACONAMIDO)-2-(2'-THIENYL)QUNINAZOLINE]
- IC50 (NFκB): 2200 nM
- IC50 (AP-1): 1700 nM

Compound: COc1cccc2nc(-c3cccs3)nc(NN3C(=O)C=C(C)C3=O)c12 [Compound 13, 4-(N-AMINOCITRACONAMIDO)-5-METHOXY-2-(2'-THIENYL)QUINAZOLINE]
- IC50 (NFκB): 8 nM
- IC50 (AP-1): 8 nM

Compound: COc1ccc2nc(-c3cccs3)nc(NN3C(=O)C=C(C)C3=O)c2c1 [Compound 14, 4-(N-AMINOCITRACONAMIDO)-6-METHOXY-2-(2'-THIENYL)QUNINAZOLINE]
- IC50 (NFκB): 2 nM
- IC50 (AP-1): 3 nM

Compound: COc1ccc2c(NN3C(=O)C=C(C)C3=O)nc(-c3cccs3)nc2c1 [Compound 15, 4-(N-AMINOCITRACONAMIDO)-7-METHOXY-2-(2'-THIENYL)QUINAZOLINE]
- IC50 (NFκB): 10 nM
- IC50 (AP-1): 20 nM

Compound: COc1cccc2c(NN3C(=O)C=C(C)C3=O)nc(-c3cccs3)nc12 [Compound 16, 4-(N-AMINOCITRACONAMIDO)-8-METHOXY-2-(2'-THIENYL)QUNINAZOLINE]
- IC50 (NFκB): 20 nM
- IC50 (AP-1): 20 nM

Compound: COc1cc2nc(-c3cccs3)nc(NN3C(=O)C=C(C)C3=O)c2cc1OC [Compound 17, 4-(N-AMINOCITRACONAMIDO)-6,7-DIMETHOXY-2-(2'-THIENYL)QUINAZOLINE]
- IC50 (NFκB): 40 nM
- IC50 (AP-1): 70 nM

Compound: COc1cc2c(NN3C(=O)C=C(C)C3=O)nc(-c3cccs3)nc2c(OC)c1OC [Compound 18, 4-(N-AMINOCITRACONAMIDO)-6,7,8-TRIMETHOXY-2-(2'-THIENYL)QUNINAZOLINE]
- IC50 (NFκB): 10 nM
- IC50 (AP-1): 20 nM

Compound: COc1cccc2nc(-c3cccs3)nc(N(C)N3C(=O)C=C(C)C3=O)c12 [Compound 19, 4-(N-METHYL-N-AMINOCITRACONAMIDO)-5-METHOXY-2-(2'-THIENYL)QUNINAZOLINE]
- IC50 (NFκB): 100 nM
- IC50 (AP-1): 70 nM

Compound: CC1=CC(=O)N(Nc2nc(-c3cccs3)nc3cccc(F)c23)C1=O [Compound 20, 4-(N-AMINOCITRACONAMIDO)-5-FLUORO-2-(2'-THIENYL)QUINAZOLINE]
- IC50 (NFκB): 200 nM
- IC50 (AP-1): 70 nM

Compound: CC1=CC(=O)N(Nc2nc(-c3cccs3)nc3cccc(Cl)c23)C1=O [Compound 21, 4-(N-AMINOCITRACONAMIDO)-5-CHLORO-2-(2'-THIENYL)QUINAZOLINE]
- IC50 (NFκB): 20 nM
- IC50 (AP-1): 30 nM

Compound: CC1=CC(=O)N(Nc2nc(-c3cccs3)nc3cccc(C)c23)C1=O [Compound 22, 4-(N-AMINOCITRACONAMIDO)-5-METHYL-2-(2'-THIENYL)QUNINAZOLINE]
- IC50 (NFκB): 10 nM
- IC50 (AP-1): 30 nM

Compound: CC1=CC(=O)N(Nc2nc(-c3cccs3)nc3cc(N(C)C)ccc23)C1=O [Compound 23, 4-(N-AMINOCITRACONAMIDO)-7-DIMETHYLAMINO-2-(2'-THIENYL)QUINAZOLINE]
- IC50 (NFκB): 40 nM
- IC50 (AP-1): 40 nM

Compound: O=P1(N(CCCl)CCCl)NCCCO1 (stereo not shown) [cyclophosphamide]
- activity in the delayed-type hypersensitivity (oxazolone) model (mice [1]): active
- activity in the popliteal lymph node (PLN) model (mice [2]): active
